Measured values published in publication PMC9504842, “Comprehensive Metabolic Profiling of Euphorbiasteroid in Rats by Integrating UPLC-Q/TOF-MS and NMR as Well as Microbial Biotransformation” (Metabolites, 2022).

Legend:
[1] = Metabolite detection in rats (plasma, urine, feces) after oral euphorbiasteroid by UPLC-Q/TOF-MS; type: in vivo, Sprague-Dawley rats; settings: single oral dose 100 mg/kg euphorbiasteroid
Description: For metabolite separation and detection, chromatographic analyses were performed using a Waters Acquity UPLC I-class system (Waters, Milford, MA, USA), equipped with an auto-sampler, a binary solvent delivery system, an online degasser, and a photodiode array detector. An ACQUITY UPLC® HSS T3 column (2.1 × 150 mm, 1.8 μm, Waters) protected with a HSS T3 VanGuard ™ Pre-Column 3/Pk (2.1 × 5.0 mm, 1.8 μm, Waters) was used. The optimized parameters were set as follows: the mobile phase consisted of eluent A (0.1% formic acid in water, v/v) and eluent B (acetonitrile). The flow rate was 0.3 mL/min. The column and auto-sampler temperatures were maintained at 40 °C and 4 °C, respectively. The gradient elution program was optimized as follows: 0–9 min, 30–70% B; 9–13 min, 70–90% B; 13–17 min, 90–100% B; 17–20 min, 100–100% B.
The mass spectrometry detection was performed on the SYNAPT G2-Si HDMS system, equipped with an electrospray ionization (ESI) source (Waters Corp., Manchester, UK). A positive ion mode was conducted in this analysis. Mass spectrometry conditions were finally set as follows: capillary voltage of 3.0 kV, cone voltage of 40 V, source temperature of 120 °C, and de-solvation temperature of 400 °C. Nitrogen was used as the desolvation and cone gas with a flow rate of 800 and 50 L/h, respectively, and the full-scan mass range was set as m/z 50–1500 Da. In the auto mass spectrometry mode, the collision-induced dissociation energies were set at 0 eV for the precursor ion at the low-energy mode, and the collision-induced dissociation energies were set from 2 to 10 eV for the high-energy mode. Real-time data were calibrated using an external reference (LockSpray™) at a concentration of 0.2 ng/mL with an infusion flow rate of 5 μL/min, generating a reference ion for the positive ion mode (m/z 556.2771) during the UPLC-MS analysis. Data were acquired and processed using MassLynx ™ NT 4.1 software (Waters, Milford, MA, USA).
Male Sprague-Dawley rats (200–220 g) were commercially supplied by Shanghai Sippr-BK Laboratory Animal Co., Ltd. (Shanghai, China) and were housed in a humidity- and temperature-controlled room (50 ± 10% and 22–24 °C) with a 12-h light/dark cycle. The experimental rats were allowed to access food and water ad libitum and acclimatized to the conditions mentioned above for a week, then fasted overnight but with free access to water before the experiments. Euphorbiasteroid was dissolved in soybean oil solution (containing 0.5% ethanol) to form a concentration of 10 mg/mL. A single dose of 100 mg/kg euphorbiasteroid was orally administered to rats and the same concentration of soybean oil solution (containing 0.5% ethanol) was administered as a blank control. All animal procedures were performed in accordance with the Guidelines for Care and Use of Laboratory Animals of Naval Medical University and approved by the Animal Ethics Committee of Naval Medical University.
Blood samples (0.5 mL) were collected from six rats through the orbital sinus before administration (blank sample) and 0.25, 0.5, 1, 2, 4, 6, and 12 h after administration. Plasma samples were prepared by centrifugation at 4000 rpm for 10 min. For urine and feces sampling, 12 rats were divided into an administration group and a blank group, and were placed separately in stainless steel metabolic cages. Urine and feces samples were collected in containers surrounded by ice over 0–6, 6–12, and 12–24 h after drug administration. The mixed urine samples were centrifuged at 4000 rpm for 10 min at 4 °C to obtain the supernatants, and fecal samples were left in a cool and dry place until dry. All the biological samples were frozen at −80 °C before analysis.
An aliquot of 200 µL of plasma and urine samples was put in a 1.5 mL tube, respectively. 800 µL of acetonitrile was added and vortexed for 5 min to extract metabolites. Feces samples (1.0 g) were crushed and then ultrasonically extracted with acetonitrile (10 mL) for 30 min. […]

[2] = In vitro incubation of euphorbiasteroid with rat liver microsomes, metabolite detection; type: in vitro ADME; settings: 37 °C, 1 h, NADPH regenerating system
Description: The microsomal incubation approach was based on previous metabolism studies published by Wintermeyer et al. and Franziska et al.. A 200 μL incubation system containing 10 μL of solution A, 2 μL of solution B, 5 μL of rat liver microsomes (20 mg/mL) and 182 μL 0.1 M PBS buffer (pH = 7.4) was constructed. The above solution was heated in a 37 °C water bath, then 1 μL of euphorbiasteroid (dissolved in DMSO solution, 10 mM) was used to start the reaction, and the mixture was then incubated at 37 °C for 1 h. The reactions were terminated by the addition of 200 μL of ice-cold acetonitrile. The mixture was then centrifuged at 13,000 rpm for 10 min, and a 2-μL aliquot of the supernatant was directly injected into the UPLC-Q-TOF-MS system.
(§1) First, the metabolites of euphorbiasteroid in rats (plasma, urine, and feces), RLMs, and C. elegans culture medium were predicted by setting the prototype components and potential biological metabolic reactions in UNIFI 4.1 software. Then, the predicted metabolites in each sample were further compared according to the characteristic mass spectrum behaviors (including parent ions, internal cleavage in the ion source, and characteristic fragment ions of each metabolite) and retention times.

[3] = test system: Cunninghamella elegans bio-110930; test: Microbial transformation of euphorbiasteroid, metabolite detection; settings: C. elegans bio-110930 culture with euphorbiasteroid
Description: The biotransformation process was conducted at two scales: preliminary screening and preparative. Preliminary screening scale biotransformation of euphorbiasteroid was carried out in 250 mL Erlenmeyer flasks containing 100 mL of liquid medium. The flasks were placed on a rotary shaker (160 rpm, 28 °C). A standard two-stage fermentation protocol was employed in all experiments. After 2 days of pre-culture, the substrates of 5 mg (dissolved in 0.5 mL of acetone) were added into each flask. Taking 1 mL samples on days 0, 2, 4, 7, 10, and 14, samples were centrifuged and the degree of transformation was compared to controls on TLC and HPLC, and a 2-μL aliquot of the supernatant was directly injected into the UPLC-Q-TOF-MS system. Culture controls consisted of sterile medium, in which microorganisms were grown under identical conditions without substrate. Substrate controls were composed of sterile medium and the same amount of substrate incubated under the same conditions without microorganisms.
as §1

CC(=O)OC1C2C(OC(=O)C(O)c3ccccc3)C(C)CC2(OC(C)=O)C(=O)C(C)=CC2C(CCC13CO3)C2(C)C (stereo not shown) [Compound M4, 7′-hydroxyl euphorbiasteroid]
√: Distribution Rat Faeces (metabolite detected) [1] | Distribution Rat Plasma (metabolite detected) [1] | Distribution Rat Urine (metabolite detected) [1] | Distribution RLMs (metabolite detected) [2] | Distribution Fungi (metabolite detected) [3]

CC(=O)OC1C2C(OC(=O)CC3=CC(O)C(O)C=C3)C(C)CC2(OC(C)=O)C(=O)C(C)=CC2C(CCC13CO3)C2(C)C (stereo not shown) [Compound M13, 3′,4′-dihydroxyl dihydroeuphorbiasteroid]
√: Distribution Rat Faeces (metabolite detected) [1] | Distribution Rat Plasma (metabolite detected) [1] | Distribution RLMs (metabolite detected) [2] | Distribution Fungi (metabolite detected) [3]

CC(=O)OC1C2C(OC(=O)Cc3ccccc3)C(C=O)CC2(OC(C)=O)C(=O)C(C)=CC2C(CCC13CO3)C2(C)C (stereo not shown) [Compound M15]
√: Distribution Rat Faeces (metabolite detected) [1] | Distribution Rat Plasma (metabolite detected) [1] | Distribution Rat Urine (metabolite detected) [1]

CC(=O)OC1C2C(OC(=O)Cc3ccccc3)C(C(=O)O)CC2(OC(C)=O)C(=O)C(C)=CC2C(CCC13CO3)C2(C)C (stereo not shown) [Compound M17]
√: Distribution Rat Faeces (metabolite detected) [1] | Distribution Rat Plasma (metabolite detected) [1] | Distribution RLMs (metabolite detected) [2] | Distribution Fungi (metabolite detected) [3]

CC(=O)OC1C2C(OC(=O)Cc3ccc(O)cc3)C(C)CC2(OC(C)=O)C(=O)C(C)=CC2C(CCC13CO3)C2(C)C (stereo not shown) [Compound M2, 4′-hydroxyl euphorbiasteroid]
√: Distribution Rat Faeces (metabolite detected) [1] | Distribution Rat Urine (metabolite detected) [1] | Distribution RLMs (metabolite detected) [2] | Distribution Fungi (metabolite detected) [3]

CC(=O)OC1C2C(OC(=O)Cc3ccccc3)C(CO)CC2(OC(C)=O)C(=O)C(C)=CC2C(CCC13CO3)C2(C)C (stereo not shown) [Compound M6]
√: Distribution Rat Faeces (metabolite detected) [1] | Distribution Rat Plasma (metabolite detected) [1] | Distribution RLMs (metabolite detected) [2]

CC(=O)OC1C2C(OC(=O)CC3=CC=CC(O)C3O)C(C)CC2(OC(C)=O)C(=O)C(C)=CC2C(CCC13CO3)C2(C)C (stereo not shown) [Compound M12, 5′,6′-dihydroxyl dihydroeuphorbiasteroid]
√: Distribution Rat Faeces (metabolite detected) [1] | Distribution Rat Plasma (metabolite detected) [1] | Distribution RLMs (metabolite detected) [2] | Distribution Fungi (metabolite detected) [3]

CC(=O)O[C@H]1[C@H]2[C@@H](OC(=O)Cc3ccccc3O[C@@H]3O[C@H](CO)[C@@H](O)[C@H](O)[C@H]3O)[C@@H](C)C[C@]2(OC(C)=O)C(=O)/C(C)=C/C2C(CC[C@@]13CO3)C2(C)C (stereo partly shown) [Compound M28]
√: Distribution Rat Faeces (metabolite detected) [1]

CC(=O)OC1C2C(OC(=O)Cc3ccccc3O)C(C)CC2(OC(C)=O)C(=O)C(C)=CC2C(CCC13CO3)C2(C)C (stereo not shown) [Compound M5, 2′-hydroxyl euphorbiasteroid]
√: Distribution Rat Faeces (metabolite detected) [1] | Distribution Rat Plasma (metabolite detected) [1] | Distribution RLMs (metabolite detected) [2] | Distribution Fungi (metabolite detected) [3]

euphorbiasteroid 2′-O-β-D-glucopyranoside [Compound M29]
√: Distribution Fungi (metabolite detected) [3]

CC(=O)OC1C2C(OC(=O)Cc3ccccc3)C(C=O)CC2(OC(C)=O)C(=O)C(C)=CC2C(CCC13CO3)C2(C)C (stereo not shown) [Compound M14]
√: Distribution Rat Faeces (metabolite detected) [1] | Distribution Rat Plasma (metabolite detected) [1] | Distribution Rat Urine (metabolite detected) [1] | Distribution Fungi (metabolite detected) [3]

CC(=O)OC1C2C(OC(=O)Cc3ccccc3O)C(C)CC2(OC(C)=O)C(=O)C(C)=CC2C(CCC13CO3)C2(C)CO (stereo not drawn) [Compound M8, 18α,2′-dihydroxyl euphorbiasteroid]
√: Distribution Rat Faeces (metabolite detected) [1] | Distribution Rat Plasma (metabolite detected) [1] | Distribution Rat Urine (metabolite detected) [1] | Distribution RLMs (metabolite detected) [2] | Distribution Fungi (metabolite detected) [3]

CC(=O)OC1C2C(OC(=O)Cc3ccccc3)C(C)CC2(OC(C)=O)C(=O)C(C)=CC2C(CCC13CO3)C2(C)CO (stereo not drawn) [Compound M1, 18α-hydroxyl euphorbiasteroid]
√: Distribution Rat Faeces (metabolite detected) [1] | Distribution Rat Plasma (metabolite detected) [1] | Distribution Rat Urine (metabolite detected) [1] | Distribution RLMs (metabolite detected) [2] | Distribution Fungi (metabolite detected) [3]

CC(=O)OC1C2C(OC(=O)Cc3ccccc3)C(C)CC2(OC(C)=O)C(=O)C(C)=CC2C(CCC13CO3)C2(C)C(=O)O (stereo not drawn) [Compound M16, 18α-carboxyl euphorbiasteroid]
√: Distribution Rat Faeces (metabolite detected) [1] | Distribution Rat Plasma (metabolite detected) [1] | Distribution Rat Urine (metabolite detected) [1] | Distribution RLMs (metabolite detected) [2] | Distribution Fungi (metabolite detected) [3]
